Experimental data reported in patent US7598417B2, “Substituted fluoroethyl ureas as alpha 2 adrenergic agents” (Allergan, Inc., priority 2007, dated 2009).

What was measured:
Type in all cases: cell-based
alpha2C receptor = biological target: T1, alpha2C receptor (Homo sapiens, UniProt P18825); assay: Receptor Selection and Amplification Technology (RSAT) assay, alpha2C; conditions: for EC50 / Alpha 2C EC50: RSAT, NIH-3T3 cells cotransfected with receptor and Gq/i5, not active = not active at concentrations less than 10 micromolar; for EC50: read-out: Alpha 2C EC50; for Alpha 2C IA (intrinsic activity): ratio of maximal effect of the drug to maximal effect of standard full agonist brimonidine (UK14304)
T1 construct: expressed in transfected cells; host or cells: NIH-3T3
T1 sequence (P18825 1-462): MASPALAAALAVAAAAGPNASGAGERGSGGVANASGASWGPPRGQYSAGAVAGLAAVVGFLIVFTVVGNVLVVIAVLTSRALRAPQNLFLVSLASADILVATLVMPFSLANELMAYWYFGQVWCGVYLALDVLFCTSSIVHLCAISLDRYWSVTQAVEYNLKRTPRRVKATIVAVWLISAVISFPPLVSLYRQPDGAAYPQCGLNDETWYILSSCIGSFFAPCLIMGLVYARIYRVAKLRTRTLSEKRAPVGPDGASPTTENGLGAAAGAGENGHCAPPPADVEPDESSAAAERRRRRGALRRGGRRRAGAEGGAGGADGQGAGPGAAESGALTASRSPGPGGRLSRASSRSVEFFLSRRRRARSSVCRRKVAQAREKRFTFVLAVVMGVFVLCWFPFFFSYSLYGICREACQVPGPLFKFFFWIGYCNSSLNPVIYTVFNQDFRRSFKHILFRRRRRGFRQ
Procedure: (§1) Receptor Selection and Amplification Technology (RSAT) Assay
(§2) The RSAT assay measures a receptor-mediated loss of contact inhibition that results in selective proliferation of receptor-containing cells in a mixed population of confluent cells. The increase in cell number is assessed with an appropriate transfected marker gene such as β-galactosidase, the activity of which can be easily measured in a 96-well format. Receptors that activate the G protein, Gq, elicit this response. Alpha2 receptors, which normally couple to Gi, activate the RSAT response when coexpressed with a hybrid Gq protein that has a Gi receptor recognition domain, called Gq/i5.
(§3) NIH-3T3 cells are plated at a density of 2×10^6 cells in 15 cm dishes and maintained in Dulbecco's modified Eagle's medium supplemented with 10% calf serum. One day later, cells are cotransfected by calcium phosphate precipitation with mammalian expression plasmids encoding p-SV-β-galactosidase (5-10 μg), receptor (1-2 μg) and G protein (1-2 μg). 40 μg salmon sperm DNA may also be included in the transfection mixture. Fresh media is added on the following day and 1-2 days later, cells are harvested and frozen in 50 assay aliquots. Cells are thawed and 100 μl added to 100 μl aliquots of various concentrations of drugs in triplicate in 96-well dishes. Incubations continue 72-96 hr at 37° C. After washing with phosphate-buffered saline, β-galactosidase enzyme activity is determined by adding 200 μl of the chromogenic substrate (consisting of 3.5 mM o-nitrophenyl-β-D-galactopyranoside and 0.5% nonidet P-40 in phosphate buffered saline), incubating overnight at 30° C. and measuring optical density at 420 nm. The absorbance is a measure of enzyme activity, which depends on cell number and reflects a receptor-mediated cell proliferation. The efficacy or intrinsic activity is calculated as a ratio of the maximal effect of the drug to the maximal effect of a standard full agonist for each receptor subtype. Brimonidine, also called UK14304, the chemical structure of which is shown below, is used as the standard agonist for the alpha2A, alpha2B and alpha2C receptors. The EC50 is the concentration at which the drug effect is half of its maximal effect.
(§4) EC50 values are nanomolar. NA stands for “not active” at concentrations less than 10 micromolar. IA stands for “intrinsic activity.”

alpha2A receptor = biological target: T2, alpha2A receptor (Homo sapiens, UniProt P08913); assay: Receptor Selection and Amplification Technology (RSAT) assay, alpha2A; conditions: for Alpha 2A EC50 / EC50: RSAT, NIH-3T3 cells cotransfected with receptor and Gq/i5, not active = not active at concentrations less than 10 micromolar; for EC50: read-out: Alpha 2A EC50; for Alpha 2A IA (intrinsic activity): ratio of maximal effect of the drug to maximal effect of standard full agonist brimonidine (UK14304)
T2 construct: expressed in transfected cells; host or cells: NIH-3T3
T2 sequence (P08913 1-465): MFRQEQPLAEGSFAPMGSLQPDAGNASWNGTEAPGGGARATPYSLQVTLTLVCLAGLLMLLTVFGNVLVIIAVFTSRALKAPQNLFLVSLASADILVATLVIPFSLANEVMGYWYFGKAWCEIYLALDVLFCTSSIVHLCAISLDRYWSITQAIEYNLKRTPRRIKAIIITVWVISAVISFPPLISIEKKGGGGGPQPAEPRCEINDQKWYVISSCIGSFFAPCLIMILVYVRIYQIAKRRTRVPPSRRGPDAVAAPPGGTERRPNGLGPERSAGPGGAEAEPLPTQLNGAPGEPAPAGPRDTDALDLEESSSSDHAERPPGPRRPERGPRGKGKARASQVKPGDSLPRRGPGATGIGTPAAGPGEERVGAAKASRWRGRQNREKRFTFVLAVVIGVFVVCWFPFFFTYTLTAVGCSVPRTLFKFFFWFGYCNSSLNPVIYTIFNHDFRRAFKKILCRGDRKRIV
Procedure: as §1, §2, §3, §4

alpha2B receptor = biological target: T3, alpha2B receptor (Homo sapiens, UniProt P18089); assay: Receptor Selection and Amplification Technology (RSAT) assay, alpha2B; conditions: for EC50: RSAT, NIH-3T3 cells cotransfected with receptor and Gq/i5, not active = not active at concentrations less than 10 micromolar, read-out: Alpha 2B EC50; for Alpha 2B IA (intrinsic activity): ratio of maximal effect of the drug to maximal effect of standard full agonist brimonidine (UK14304)
T3 construct: expressed in transfected cells; host or cells: NIH-3T3
T3 sequence (P18089 1-450): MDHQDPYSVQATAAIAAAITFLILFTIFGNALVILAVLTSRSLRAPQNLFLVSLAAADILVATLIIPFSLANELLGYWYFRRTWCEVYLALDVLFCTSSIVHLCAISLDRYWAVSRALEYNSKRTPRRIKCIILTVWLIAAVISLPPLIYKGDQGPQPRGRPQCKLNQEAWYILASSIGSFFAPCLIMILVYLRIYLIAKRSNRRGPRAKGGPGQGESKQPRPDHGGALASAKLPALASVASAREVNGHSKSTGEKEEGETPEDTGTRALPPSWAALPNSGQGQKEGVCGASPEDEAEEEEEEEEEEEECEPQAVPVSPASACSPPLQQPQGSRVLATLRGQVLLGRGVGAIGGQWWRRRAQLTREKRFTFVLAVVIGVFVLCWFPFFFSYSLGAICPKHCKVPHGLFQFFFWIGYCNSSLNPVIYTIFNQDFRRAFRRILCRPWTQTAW
Procedure: as §1, §2, §3
The results of the RSAT assay with several exemplary compounds of the invention are disclosed in Table 1 above together with the chemical formulas of these exemplary compounds. EC50 values are nanomolar. NA stands for “not active” at concentrations less than 10 micromolar. IA stands for “intrinsic activity.”

SMILES	EC50 (alpha2C receptor) [nM]	Alpha 2C IA (intrinsic activity) (alpha2C receptor)	Alpha 2A EC50 (alpha2A receptor)	EC50 (alpha2B receptor) [nM]	Alpha 2B IA (intrinsic activity) (alpha2B receptor)	Alpha 2C EC50 (alpha2C receptor)	EC50 (alpha2A receptor) [nM]	Alpha 2A IA (intrinsic activity) (alpha2A receptor)
Cc1cccc2c1CC(NC(=O)NCCF)C2 (stereo not shown)	454	0.4	not active	100	0.98	–	–	–
O=C(NCCF)NC1Cc2ccc(Cl)cc2C1 (stereo not shown)	–	–	not active	1780	0.31	not active	–	–
CCc1cccc2c1CCC2NC(=O)NCCF (stereo not shown)	103	0.47	not active	10.6	0.99	–	–	–
COc1cccc2c1CCCC2NC(=O)NCCF (stereo not shown)	872	0.51	–	291	0.84	–	2350	0.37
Cc1ccc2c(c1)CCC2NC(=O)NCCF (stereo not shown)	–	–	not active	247	0.71	not active	–	–
O=C(NCCF)NC1C=C(CO)CCC1 (stereo not shown)	2600	0.4	not active	1260	0.58	–	–	–
O=C(NCCF)NC1CCCc2sccc21 (stereo not shown)	40	0.52	not active	9.6	0.86	–	–	–
COc1ccc2c(c1)C(NC(=O)NCCF)CCC2 (stereo not shown)	–	–	not active	824	0.78	not active	–	–
O=C(NCCF)NC1CCc2cc(Cl)ccc21 (stereo not shown)	–	–	not active	845	0.31	not active	–	–
Cc1cc(C)c2c(c1)C(NC(=O)NCCF)CCC2 (stereo not shown)	391	0.58	–	27	0.91	–	109	0.49
O=C(NCCF)NC1CCc2ncccc21 (stereo not shown)	2460	0.41	–	100	1.08	–	2550	0.55
O=C(NCCF)NC1CCc2ccc(F)cc21 (stereo not shown)	60	0.47	not active	20	0.54	–	–	–
O=C(NCCF)NC1CCCc2occc21 (stereo not shown)	453	0.44	not active	90	0.81	–	–	–
COc1ccc2c(c1)C(NC(=O)NCCF)CC2 (stereo not shown)	1460	0.31	not active	300	0.81	–	–	–
CCc1cccc2c1CCCC2NC(=O)NCCF (stereo not shown)	904	0.34	–	158	0.93	–	450	0.32
O=C(NCCF)NC1Cc2cccc(Cl)c2C1 (stereo not shown)	12.5	0.44	not active	15.4	0.67	–	–	–
Nc1cccc2c1CCC2NC(=O)NCCF (stereo not shown)	1300	0.54	–	36.6	1.0	–	429	0.48
Cc1cccc2c1C(NC(=O)NCCF)CC2 (stereo not shown)	197	0.62	–	26.8	0.6	–	189	0.43
CC1=C(C)C(NC(=O)NCCF)CCC1 (stereo not shown)	513	0.52	not active	19.7	0.76	–	–	–
O=C(NCCF)NC1CCc2c(Cl)cccc21 (stereo not shown)	116	1.1	–	2.5	1.03	–	34.9	1.05
O=C(NCCF)NC1CCc2c(O)cccc21 (stereo not shown)	73	0.73	–	9.6	0.96	–	186	0.53
CC1=CC(NC(=O)NCCF)CC1 (stereo not shown)	911	0.47	not active	1160	0.61	–	–	–
CCC1=C(C)C(NC(=O)NCCF)CC1 (stereo not shown)	886	0.37	not active	319	0.88	–	–	–
O=C(NCCF)NC1CCc2ccc(Cl)cc21 (stereo not shown)	86	0.7	–	12	0.99	–	343	0.63
O=C(NCCF)NC1CCc2cccnc21 (stereo not shown)	–	–	not active	3080	0.81	not active	–	–
CCC[C@@H]1CCCC[C@H]1NC(=O)NCCF	–	–	–	1740	0.84	not active	1470	0.4
O=C(NCCF)NC1CCc2ccc(Br)cc21 (stereo not shown)	220	0.45	not active	302	0.52	–	–	–
CC1=C(C)C(NC(=O)NCCF)CC1 (stereo not shown)	214	0.64	–	37	1.07	–	586	0.36
